Experimental data: article PMC12677652, “Procyanidin B3 and Its Derivatives Alleviate Neuronal Injury by Targeting G3BP1 for Ischemic Stroke Therapy” (Advanced Science, 2025)

Columns and labels:
[1] = test system: G3BP1 knockdown HT22 cells; assay: Activity of PB3 in G3BP1 knockdown (siRNA) HT22 cells; type: cell-based; conditions: PB3 50 µM
Experimental: The CCK‐8 assay kit (Yeasen, China) was used to assess cell viability. All operations were performed following instructions. HT22 cells were seeded into the 96‐well plate (3000 cells per well). The cells were cultured at 37 °C with 5% CO2 in a humidified incubator overnight. After 6 h of OGD, the medium was replaced by DMEM/F‐12 with 10% FBS and 1% penicillin/streptomycin containing PB3 or other compounds and kept in a humidified 5% CO2, 37 °C incubator for 24 h. Then, the cells were washed with PBS, the medium was replaced with DMEM/F‐12 with 10% FBS and 1% penicillin/streptomycin containing 10% CCK‐8 solution, and incubated for 1 h at 37 °C. The absorbance was assessed by a Synergy H1 multi‐mode microplate reader (BioTek, USA) at 450 nm.
Apoptosis level was evaluated by TUNEL staining and flow cytometry. For TUNEL staining, HT22 cells were treated with 4% paraformaldehyde for 15 min. […] Red fluorescence was utilized to identify apoptotic cells, while 4′, 6‐diamidino‐2‐phenylindole (DAPI) was used to counterstain the nuclei. The fluorescence microscope (Carl Zeiss, Germany) was used to obtain images. For flow cytometry, apoptotic cells were determined with the Annexin V‐Alexa Fluor 488/PI apoptosis detection kit (Yeasen, China) by following the instructions. […] Cell apoptosis was immediately determined by Cytek Aurora (Cytek Biosciences, USA). […]

[2] = biological target: T1, G3BP1 (Mus musculus, UniProt P97855); assay: Cellular thermal shift assay; type: binding; conditions: HT22 cell lysate
T1 construct: endogenous in cells; host or cells: HT22 cell lysate
Experimental: HT22 cells were grown to 90% confluency and harvested by trypsin and resuspended in 1 mL PBS. The samples were subjected to three freeze–thaw cycles in liquid nitrogen. Each cell lysate was centrifuged (12000 g for 30 min at 4 °C), and the supernatant was collected. The supernatants were treated with PB3 (or PBS control) for 20 min. Subsequently, they were aliquoted into Eppendorf tubes and heated for 3 min to 44, 48, 52, 56, or 60 °C. The soluble fractions were analyzed by SDS‐polyacrylamide gel electrophoresis and immunoblotted with anti‐G3BP1 antibody.

[3] = test system: tMCAO mice; assay: Long-term neurological recovery after tMCAO; type: in vivo; conditions: 48 mg/kg daily, i.p.
Experimental: The modified neurological severity score was applied according to the previous report.^[ [63] ^] The range of the neurological function score extends from 0 to 18 points. A higher score represents more severe neurological deficits. In the rotarod test, according to the previous report,^[ [64] ^] mice were tested under the accelerating rotor mode with acceleration from 5 to 20 rpm. The final score for statistical analysis was expressed as the mean time that mice could remain on the rod.

T1 sequence (P97855 whole entry): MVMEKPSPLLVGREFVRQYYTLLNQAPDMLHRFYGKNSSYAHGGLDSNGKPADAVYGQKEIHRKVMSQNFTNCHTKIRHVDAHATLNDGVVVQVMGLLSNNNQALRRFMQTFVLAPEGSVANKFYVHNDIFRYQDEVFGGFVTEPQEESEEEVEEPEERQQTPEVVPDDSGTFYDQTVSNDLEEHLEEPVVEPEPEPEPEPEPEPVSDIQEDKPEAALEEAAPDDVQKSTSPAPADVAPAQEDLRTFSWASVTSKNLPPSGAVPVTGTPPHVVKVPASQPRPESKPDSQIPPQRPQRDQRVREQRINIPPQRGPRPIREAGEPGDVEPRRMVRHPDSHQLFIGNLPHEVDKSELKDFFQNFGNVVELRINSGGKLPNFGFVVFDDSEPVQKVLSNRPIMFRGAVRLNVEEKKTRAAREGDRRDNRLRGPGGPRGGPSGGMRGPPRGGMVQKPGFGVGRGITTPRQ

SMILES | cell viability, effect of G3BP1 knockdown [1] | rate of TUNEL‐positive cells [1] | thermal stability of G3BP1 [2] | body weight [3] | modified neurological severity scores [3] | rotarod test ([3]; at the end of treatment)
Oc1cc(O)c2c(c1)O[C@H](c1ccc(O)c(O)c1)[C@@H](O)[C@@H]2c1c(O)cc(O)c2c1O[C@H](c1ccc(O)c(O)c1)[C@@H](O)C2 [Compound 1, procyanidin B3] | inhibited the neuroprotective effects | not significantly changed | enhanced the thermal stability of G3BP1 |  |  | 
CC(C)c1c(O)cc(O)c2c1O[C@H](c1ccc(O)c(O)c1)[C@@H](O)[C@@H]2c1c(O)cc(O)c2c1O[C@H](c1ccc(O)c(O)c1)[C@@H](O)C2 [Compound 6c, 8‐Isopropyl‐(+)‐Catechin‐(4α,8)‐(+)‐Catechin] |  |  |  | mitigated the tendency toward weight loss | lower scores than the tMCAO group | showed improvements compared with the tMCAO group
